Results taken from PubChem BioAssay (NCI).
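Grown in 96-well plates, cells were treated for 48 hours with each compound at five concentrations. Insufficient inhibition: endpoint recorded as highest concentration tested. TGI: total growth inhibition.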

Experiments:
Assay in all cases: NCI tumour cell line growth inhibition, 48 h
KM12 colon = test system: KM12 colon
SNB-75 CNS = test system: SNB-75 CNS
HOP-62 NSCLC = test system: HOP-62 NSCLC
HOP-92 NSCLC = test system: HOP-92 NSCLC
UACC-62 melanoma = test system: UACC-62 melanoma
HS 578T breast = test system: HS 578T breast
SK-MEL-28 melanoma = test system: SK-MEL-28 melanoma
NCI-H522 lung = test system: NCI-H522 lung
SR leukemia = test system: SR leukemia
RPMI-8226 leukemia = test system: RPMI-8226 leukemia
OVCAR-4 ovarian = test system: OVCAR-4 ovarian
HCC-2998 colon = test system: HCC-2998 colon
TK-10 renal = test system: TK-10 renal
UACC-257 melanoma = test system: UACC-257 melanoma
SK-OV-3 ovarian = test system: SK-OV-3 ovarian
UO-31 renal = test system: UO-31 renal
RXF 393 renal = test system: RXF 393 renal
ACHN renal = test system: ACHN renal
OVCAR-8 ovarian = test system: OVCAR-8 ovarian
NCI-H460 lung = test system: NCI-H460 lung
NCI-H23 lung = test system: NCI-H23 lung
K-562 leukemia = test system: K-562 leukemia
MDA-MB-435 = test system: MDA-MB-435
OVCAR-5 ovarian = test system: OVCAR-5 ovarian
SN12C renal = test system: SN12C renal
COLO 205 colon = test system: COLO 205 colon
NCI/ADR-RES ovarian = test system: NCI/ADR-RES ovarian
T-47D breast = test system: T-47D breast
CAKI-1 renal = test system: CAKI-1 renal
MOLT-4 leukemia = test system: MOLT-4 leukemia
MDA-N = test system: MDA-N
IGROV1 ovarian = test system: IGROV1 ovarian
PC-3 prostate = test system: PC-3 prostate
M14 melanoma = test system: M14 melanoma
A498 renal = test system: A498 renal
SF-268 CNS = test system: SF-268 CNS
SK-MEL-2 melanoma = test system: SK-MEL-2 melanoma
A549 NSCLC = test system: A549 NSCLC
HCT-15 colon = test system: HCT-15 colon
SNB-19 CNS = test system: SNB-19 CNS
SF-295 CNS = test system: SF-295 CNS
DU-145 prostate = test system: DU-145 prostate
MDA-MB-231 breast = test system: MDA-MB-231 breast
U251 CNS = test system: U251 CNS
HCT-116 colon = test system: HCT-116 colon
MALME-3M melanoma = test system: MALME-3M melanoma
HT29 colon = test system: HT29 colon
786-0 renal = test system: 786-0 renal
LOX IMVI melanoma = test system: LOX IMVI melanoma
BT-549 breast = test system: BT-549 breast
OVCAR-3 ovarian = test system: OVCAR-3 ovarian
NCI-H226 lung = test system: NCI-H226 lung
SW-620 colon = test system: SW-620 colon
SK-MEL-5 melanoma = test system: SK-MEL-5 melanoma
EKVX NSCLC = test system: EKVX NSCLC
SF-539 CNS = test system: SF-539 CNS
MCF7 breast = test system: MCF7 breast
HL-60(TB) leukemia = test system: HL-60(TB) leukemia
CCRF-CEM leukemia = test system: CCRF-CEM leukemia

Measured: TGI

CCOC(=O)c1sc2nc(SC)nc(N3CCCCC3)c2c1N
> 100 µM: KM12 colon | SNB-75 CNS | HOP-62 NSCLC | HOP-92 NSCLC | UACC-62 melanoma | HS 578T breast | SK-MEL-28 melanoma | NCI-H522 lung | SR leukemia | RPMI-8226 leukemia | OVCAR-4 ovarian | HCC-2998 colon | TK-10 renal | UACC-257 melanoma | SK-OV-3 ovarian | UO-31 renal | RXF 393 renal | ACHN renal | OVCAR-8 ovarian | NCI-H460 lung | NCI-H23 lung | K-562 leukemia | MDA-MB-435 | OVCAR-5 ovarian | SN12C renal | COLO 205 colon | NCI/ADR-RES ovarian | T-47D breast | CAKI-1 renal | MOLT-4 leukemia | MDA-N | IGROV1 ovarian | PC-3 prostate | M14 melanoma | A498 renal | SF-268 CNS | SK-MEL-2 melanoma | A549 NSCLC | HCT-15 colon | SNB-19 CNS | SF-295 CNS | DU-145 prostate | MDA-MB-231 breast | U251 CNS | HCT-116 colon | MALME-3M melanoma | HT29 colon | 786-0 renal | LOX IMVI melanoma | BT-549 breast | OVCAR-3 ovarian | NCI-H226 lung | SW-620 colon | SK-MEL-5 melanoma

CC(NC(=O)C(Cc1ccc(OC(=O)c2ccccc2)cc1)NC(=O)OC(C)(C)C)C(=O)NCC(=O)NC(Cc1ccccc1)NC(=O)OCc1ccccc1 (stereo unspecified)
> 100 µM: KM12 colon | SNB-75 CNS | HOP-62 NSCLC | HOP-92 NSCLC | UACC-62 melanoma | HS 578T breast | SK-MEL-28 melanoma | NCI-H522 lung | SR leukemia | RPMI-8226 leukemia | OVCAR-4 ovarian | EKVX NSCLC | TK-10 renal | SK-OV-3 ovarian | UO-31 renal | SF-539 CNS | RXF 393 renal | ACHN renal | OVCAR-8 ovarian | NCI-H460 lung | NCI-H23 lung | K-562 leukemia | MDA-MB-435 | OVCAR-5 ovarian | SN12C renal | COLO 205 colon | T-47D breast | CAKI-1 renal | MOLT-4 leukemia | MCF7 breast | MDA-N | IGROV1 ovarian | PC-3 prostate | M14 melanoma | A498 renal | SF-268 CNS | A549 NSCLC | HCT-15 colon | SNB-19 CNS | SF-295 CNS | DU-145 prostate | MDA-MB-231 breast | U251 CNS | HCT-116 colon | MALME-3M melanoma | HT29 colon | 786-0 renal | HL-60(TB) leukemia | LOX IMVI melanoma | BT-549 breast | OVCAR-3 ovarian | NCI-H226 lung | SW-620 colon | SK-MEL-5 melanoma

CC1CC2=C(C1)C(C1(C)C(=O)CC3C(C1=O)C3(C)C)C(C)C2=O (stereo unspecified)
> 100 µM: KM12 colon | SNB-75 CNS | HOP-62 NSCLC | HOP-92 NSCLC | UACC-62 melanoma | HS 578T breast | SK-MEL-28 melanoma | NCI-H522 lung | SR leukemia | RPMI-8226 leukemia | OVCAR-4 ovarian | HCC-2998 colon | EKVX NSCLC | TK-10 renal | UACC-257 melanoma | SK-OV-3 ovarian | UO-31 renal | SF-539 CNS | RXF 393 renal | ACHN renal | OVCAR-8 ovarian | NCI-H460 lung | NCI-H23 lung | K-562 leukemia | MDA-MB-435 | CCRF-CEM leukemia | OVCAR-5 ovarian | SN12C renal | COLO 205 colon | T-47D breast | CAKI-1 renal | MOLT-4 leukemia | MCF7 breast | MDA-N | IGROV1 ovarian | PC-3 prostate | M14 melanoma | A498 renal | SF-268 CNS | SK-MEL-2 melanoma | A549 NSCLC | HCT-15 colon | SNB-19 CNS | SF-295 CNS | DU-145 prostate | MDA-MB-231 breast | U251 CNS | HCT-116 colon | MALME-3M melanoma | HT29 colon | 786-0 renal | HL-60(TB) leukemia | LOX IMVI melanoma | BT-549 breast | OVCAR-3 ovarian | NCI-H226 lung | SW-620 colon | SK-MEL-5 melanoma
